In patent US10047098B2, “C5-C6-oxacyclic fused iminopyrimidinone compounds as bace inhibitors, compositions, and their use” (Merck Sharp & Dohme Corp., priority 2014, dated 2018):

What was measured:
[1] = biological target: Recombinant human soluble BACE1 catalytic domain (Homo sapiens (Human), UniProt P56817); test: BACE1 HTRF FRET Assay; format: biochemical; conditions: Ki calculated from IC50 using the Cheng-Prusoff equation; QSY7-APPswe-Eu substrate, pH 5.0; read-out: BACE-1 Ki
Procedure, shortened: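 Purified BACE1 catalytic domain (3 nM as added) is preincubated with inhibitor for 30 min at 30 °C in 20 mM Na-acetate pH 5.0, 10% glycerol, 0.1% Brij-35, 7.5% DMSO. QSY7-APP^swe-Eu substrate (200 nM final) is then cleaved for 1.5 h at 30 °C and read as time-resolved 620 nm fluorescence. IC50s come from nonlinear regression, and Ki from Cheng-Prusoff using substrate Km 8 μM.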

[2] = biological target: purified human autoBACE-2 (Homo sapiens (Human), UniProt Q9Y5Z0); test: BACE-2 Assay (BACE-HTRF assay); format: biochemical; conditions: Ki calculated from IC50 using the Cheng-Prusoff equation; QSY7-EISEVNLDAEFC-Eu-amide substrate, pH 5.0
Sequence of purified human autoBACE-2 (Q9Y5Z0 63-473 limits assumed): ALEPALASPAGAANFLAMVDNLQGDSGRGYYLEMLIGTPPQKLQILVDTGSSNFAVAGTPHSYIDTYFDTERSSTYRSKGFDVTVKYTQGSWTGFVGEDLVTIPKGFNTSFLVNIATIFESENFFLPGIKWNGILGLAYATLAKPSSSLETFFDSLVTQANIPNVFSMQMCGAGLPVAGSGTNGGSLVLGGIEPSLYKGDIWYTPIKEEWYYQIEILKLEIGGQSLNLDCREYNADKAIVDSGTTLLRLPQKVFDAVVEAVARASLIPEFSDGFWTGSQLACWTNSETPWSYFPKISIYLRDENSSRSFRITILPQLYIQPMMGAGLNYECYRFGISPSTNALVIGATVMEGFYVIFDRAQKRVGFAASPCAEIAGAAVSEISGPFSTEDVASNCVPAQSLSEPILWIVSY
Procedure, shortened: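 Endpoint proteolysis of a QSY7/europium FRET peptide by purified human autoBACE-2, 5% DMSO final, read by time-resolved fluorescence at 620 nm after 320 nm excitation.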

Sequence of Recombinant human soluble BACE1 catalytic domain (P56817 75-416): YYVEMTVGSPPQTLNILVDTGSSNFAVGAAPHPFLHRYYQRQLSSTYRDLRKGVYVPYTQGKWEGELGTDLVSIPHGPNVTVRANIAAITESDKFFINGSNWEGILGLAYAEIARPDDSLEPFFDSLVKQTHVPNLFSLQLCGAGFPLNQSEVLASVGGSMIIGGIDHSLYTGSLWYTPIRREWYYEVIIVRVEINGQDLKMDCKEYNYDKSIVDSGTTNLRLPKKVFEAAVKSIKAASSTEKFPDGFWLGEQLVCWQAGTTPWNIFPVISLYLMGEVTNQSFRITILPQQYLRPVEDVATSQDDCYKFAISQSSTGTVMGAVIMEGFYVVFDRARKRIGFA

Row | Compound | Ki [1] [nM] | Ki [2] [nM]
1 | Cc1nccnc1Oc1ccc(F)c([C@]23CO[C@@H](C)C[C@H]2C(=O)N(C)C(=N)N3)c1 [Example 70, (4aR,6S,8aS)-8a-(2-fluoro-5-((3-methylpyrazin-2-yl)oxy)phenyl)-2-imino-3,6-dimethylhexahydro-1H-pyrano[3,4-d]pyrimidin-4(4aH)-one] | 402 | 235
2 | COc1ccnc(Oc2ccc(F)c([C@]34CO[C@@H](C)C[C@H]3C(=O)N(C)C(=N)N4)c2)c1 [Example 71, (4aR,6S,8aS)-8a-(2-fluoro-5-((4-methoxypyridin-2-yl)oxy)phenyl)-2-imino-3,6-dimethylhexahydro-1H-pyrano[3,4-d]pyrimidin-4(4aH)-one] | 39.9 | 15
3 | C[C@H]1C[C@H]2C(=O)N(C)C(=N)N[C@@]2(c2cc(Oc3ncccc3Cl)ccc2F)CO1 [Example 72, (4aR,6S,8aS)-8a-(5-((3-chloropyridin-2-yl)oxy)-2-fluorophenyl)-2-imino-3,6-dimethylhexahydro-1H-pyrano[3,4-d]pyrimidin-4(4aH)-one] | 37.6 | 9.67
4 | Cc1cccnc1Oc1ccc(F)c([C@]23CO[C@@H](C)C[C@H]2C(=O)N(C)C(=N)N3)c1 [Example 73, (4aR,6S,8aS)-8a-(2-fluoro-5-((3-methylpyridin-2-yl)oxy)phenyl)-2-imino-3,6-dimethylhexahydro-lH-pyrano[3,4-d]pyrimidin-4(4aH)-one] | 295 | 32.3
5 | C[C@H]1C[C@H]2C(=O)N(C)C(=N)N[C@@]2(c2cc(Oc3ccncc3F)ccc2F)CO1 [Example 74, (4aR,6S,8aS)-8a-(2-fluoro-5-((3-fluoropyridin-4-yl)oxy)phenyl)-2-imino-3,6-dimethylhexahydro-1H-pyrano[3,4-d]pyrimidin-4(4aH)-one] | 44.3 | 31.5
6 | C[C@H]1C[C@H]2C(=O)N(C)C(=N)N[C@@]2(c2cc(Oc3ccccn3)ccc2F)CO1 [Example 76, (4aR,6S,8aS)-8a-(2-fluoro-5-(pyridin-2-yloxy)phenyl)-2-imino-3,6-dimethylhexahydro-1H-pyrano[3,4-d]pyrimidin-4(4aH)-one] | 31.7 | 13.4
7 | C[C@H]1C[C@H]2C(=O)N(C)C(=N)N[C@@]2(c2cc(Oc3cc4ccccc4cn3)ccc2F)CO1 [Example 77, (4aR,6S,8aS)-8a-(2-fluoro-5-(isoquinolin-3-yloxy)phenyl)-2-imino-3,6-dimethylhexahydro-1H-pyrano[3,4-d]pyrimidin-4(4aH)-one] | 1450 | 242
8 | C[C@H]1C[C@H]2C(=O)N(C)C(=N)N[C@@]2(c2cc(Oc3cncc(F)c3)ccc2F)CO1 [Example 78, (4aR,6S,8aS)-8a-(2-fluoro-5-((5-fluoropyridin-3-yl)oxy)phenyl)-2-imino-3,6-dimethylhexahydro-1H-pyrano[3,4-d]pyrimidin-4(4aH)-one] | 20 | 32.9
9 | C[C@H]1C[C@H]2C(=O)N(C)C(=N)N[C@@]2(c2cc(Oc3ncc(F)cc3F)ccc2F)CO1 [Example 79, (4aR,6S,8aS)-8a-(5-((3,5-difluoropyridin-2-yl)oxy)-2-fluorophenyl)-2-imino-3,6-dimethylhexahydro-1H-pyrano[3,4-d]pyrimidin-4(4aH)-one] | 43.5 | 41.3
10 | C[C@H]1C[C@H]2C(=O)N(C)C(=N)N[C@@]2(c2cc(Oc3cc(F)cnc3F)ccc2F)CO1 [Example 80, (4aR,6S,8aS)-8a-(5-((2,5-difluoropyridin-3-yl)oxy)-2-fluorophenyl)-2-imino-3,6-dimethylhexahydro-1H-pyrano[3,4-d]pyrimidin-4(4aH)-one] | 8.5 | 22.3
11 | C[C@H]1C[C@H]2C(=O)N(C)C(=N)N[C@@]2(c2cc(Oc3cccnc3)ccc2F)CO1 [Example 81, (4aR,6S,8aS)-8a-(2-fluoro-5-(pyridin-3-yloxy)phenyl)-2-imino-3,6-dimethylhexahydro-1H-pyrano[3,4-d]pyrimidin-4(4aH)-one] | 26.8 | 20.7
12 | C[C@H]1C[C@H]2C(=O)N(C)C(=N)N[C@@]2(c2cc(Oc3cc(F)ccc3F)ccc2F)CO1 [Example 82, (4aR,6S,8aS)-8a-(5-(2,5-difluorophenoxy)-2-fluorophenyl)-2-imino-3,6-dimethylhexahydro-1H-pyrano[3,4-d]pyrimidin-4(4aH)-one] | 45.7 | 23.5
13 | (4aR,6S,8aS)-8a-(5-((4-chloropyridin-3-yl)oxy)-2-fluorophenyl)-2-imino-3,6-dimethylhexahydro-1H-pyrano[3,4-d]pyrimidin-4(4aH)-one [Example 75] | 58.2 | 23.3

Next, values leading:

Row | Ki [1] [nM] | Ki [2] [nM] | Compound
14 | 60.5 | 24.2 | CN1C(=N)N[C@@]2(c3cc(Br)ccc3F)CO[C@@H](c3ccc(F)cc3)C[C@H]2C1=O [Example 83, (4aR,6R,8aS)-8a-(5-bromo-2-fluorophenyl)-6-(4-fluorophenyl)-2-imino-3-methylhexahydro-1H-pyrano[3,4-d]pyrimidin-4(4aH)-one]
15 | 70 | 17.2 | CN1C(=N)N[C@@]2(c3cc(O)ccc3F)CO[C@@H](c3ccc(F)cc3)C[C@H]2C1=O [Example 84, (4aR,6R,8aS)-8a-(2-fluoro-5-hydroxyphenyl)-6-(4-fluorophenyl)-2-imino-3-methylhexahydro-1H-pyrano[3,4-d]pyrimidin-4(4aH)-one]
16 | 3.2 | 0.76 | CN1C(=N)N[C@@]2(c3cc(OCC4CC4)ccc3F)CO[C@@H](c3ccc(F)cc3)C[C@H]2C1=O [Example 85, (4aR,6R,8aS)-8a-(5-(cyclopropylmethoxy)-2-fluorophenyl)-6-(4-fluorophenyl)-2-imino-3-methylhexahydro-1H-pyrano[3,4-d]pyrimidin-4(4aH)-one]
17 | 1200 | 298 | CN1C(=N)N[C@@]2(c3cc(Br)ccc3F)COCC[C@H]2C1=O [Example 86, (4aR,8aS)-8a-(5-bromo-2-fluorophenyl)-2-imino-3-methylhexahydro-IH-pyrano[3,4-d]pyrimidin-4(4aH)-one]
18 | 27 | 13.5 | CN1C(=N)N[C@@]2(c3cc(Oc4ncccc4F)ccc3F)COCC[C@H]2C1=O [Example 87, (4aR,8aS)-8a-(2-fluoro-5-((3-fluoropyridin-2-yl)oxy)phenyl)-2-imino-3-methylhexahydro-1H-pyrano[3,4-d]pyrimidin-4(4aH)-one]
19 | 44 | 5.96 | CN1C(=N)N[C@@]2(c3cc(OCC4CC4)ccc3F)COCC[C@H]2C1=O [Example 88, (4aR,8aS)-8a-(5-(cyclopropylmethoxy)-2-fluorophenyl)-2-imino-3-methylhexahydro-1H-pyrano[3,4-d]pyrimidin-4(4aH)-one]
20 | 910 | 304 | COC[C@H]1C[C@H]2C(=O)N(C)C(=N)N[C@@]2(c2cc(Br)ccc2F)CO1 [Example 89, (4aR,6R,8aS)-8a-(5-bromo-2-fluorophenyl)-2-imino-6-(methoxymethyl)-3-methylhexahydro-1H-pyrano[3,4-d]pyrimidin-4(4aH)-one]
21 | 21 | 8.84 | COC[C@H]1C[C@H]2C(=O)N(C)C(=N)N[C@@]2(c2cc(OCC3CC3)ccc2F)CO1 [Example 90, (4aR,6R,8aS)-8a-(5-(cyclopropylmethoxy)-2-fluorophenyl)-2-imino-6-(methoxymethyl)-3-methylhexahydro-1H-pyrano[3,4-d]pyrimidin-4(4aH)-one]
22 | 468 | 155 | COc1cc([C@]23CO[C@@H](C)C[C@H]2C(=O)N(C)C(=N)N3)c(F)cn1 [Example 91, (4aR,6S,8aS)-8a-(5-fluoro-2-methoxypyridin-4-yl)-2-imino-3,6-dimethylhexahydro-1H-pyrano[3,4-d]pyrimidin-4(4aH)-one]
23 | 11.1 | 2.19 | C[C@H]1C[C@H]2C(=O)N(C)C(=N)N[C@@]2(c2cc(OCC3CC3)ncc2F)CO1 [Example 92, (4aR,6S,8aS)-8a-(2-(cyclopropylmethoxy)-5-fluoropyridin-4-yl)-2-imino-3,6-dimethylhexahydro-1H-pyrano[3,4-d]pyrimidin-4(4aH)-one]
24 | 16.1 | 4.46 | C=CCCOc1cc([C@]23CO[C@@H](C)C[C@H]2C(=O)N(C)C(=N)N3)c(F)cn1 [Example 93, (4aR,6S,8aS)-8a-(2-(but-3-en-1-yloxy)-5-fluoropyridin-4-yl)-2-imino-3,6-dimethylhexahydro-1H-pyrano[3,4-d]pyrimidin-4(4aH)-one]
25 | 4180 | 1590 | C[C@H]1C[C@H]2C(=O)N(C)C(=N)N[C@@]2(c2cc(=O)n(CC3CC3)cc2F)CO1 [Example 94, (4aR,6S,8aS)-8a-(1-(cyclopropylmethyl)-5-fluoro-2-oxo-1,2-dihydropyridin-4-yl)-2-imino-3,6-dimethylhexahydro-1H-pyrano[3,4-d]pyrimidin-4(4aH)-one]
26 | 8400 | 1590 | C=CCCn1cc(F)c([C@]23CO[C@@H](C)C[C@H]2C(=O)N(C)C(=N)N3)cc1=O [Example 95, (4aR,6S,8aS)-8a-(1-(but-3-en-1-yl)-5-fluoro-2-oxo-1,2-dihydropyridin-4-yl)-2-imino-3,6-dimethylhexahydro-1H-pyrano[3,4-d]pyrimidin-4(4aH)-one]
27 | 145 | 31.3 | C[C@H]1C[C@H]2C(=O)N(C)C(=N)N[C@@]2(c2cc(Oc3ncccc3F)ncc2F)CO1 [Example 96]
